Source: patent publication US11180470B2, “Herbicidal pyrimidine compounds” (BASF SE, priority 2016, dated 2021)

Tests used:
SETVI = assay: greenhouse experiment, post-emergence treatment; format: in vivo, Setaria viridis; settings: post-emergence method, application rate 2000 g/ha, scale from 0 to 100
Description: (§1) The culture containers used were plastic flowerpots containing loamy sand with approximately 3.0% of humus as the substrate. The seeds of the test plants were sown separately for each species.
(§2) For the post-emergence treatment, the test plants were first grown to a height of 3 to 15 cm, depending on the plant habit, and only then treated with the active ingredients which had been suspended or emulsified in water. For this purpose, the test plants were either sown directly and grown in the same containers, or they were first grown separately as seedlings and transplanted into the test containers a few days prior to treatment.
(§3) Depending on the species, the plants were kept at 10-25° C. or 20-35° C., respectively.
(§4) The test period extended over 2 to 4 weeks. During this time, the plants were tended, and their response to the individual treatments was evaluated.
(§5) Evaluation was carried out using a scale from 0 to 100. 100 means no emergence of the plants, or complete destruction of at least the aerial moieties, and 0 means no damage, or normal course of growth. A good herbicidal activity is given at values of at least 70 and a very good herbicidal activity is given at values of at least 85.
(§6) The plants used in the greenhouse experiments were of the following species: […]

ECHCG [1] = assay: greenhouse experiment, post-emergence treatment; format: in vivo, Echinocloa crus-galli; settings: post-emergence method, application rate 2000 g/ha, scale from 0 to 100
Method: The seeds of the test plants were sown separately for each species. […] For this purpose, the test plants were either sown directly and grown in the same containers, or they were first grown separately as seedlings and transplanted into the test containers a few days prior to treatment. Depending on the species, the plants were kept at 10-25° C. or 20-35° C., respectively. The test period extended over 2 to 4 weeks. During this time, the plants were tended, and their response to the individual treatments was evaluated. Evaluation was carried out using a scale from 0 to 100. 100 means no emergence of the plants, or complete destruction of at least the aerial moieties, and 0 means no damage, or normal course of growth. A good herbicidal activity is given at values of at least 70 and a very good herbicidal activity is given at values of at least 85. The plants used in the greenhouse experiments were of the following species: [table]

AMARE = assay: greenhouse experiment, post-emergence treatment; format: in vivo, Amaranthus retroflexus; settings: post-emergence method, application rate 2000 g/ha, scale from 0 to 100
Description: as §1, §2, §3, §4, §5, §6

APESV = assay: greenhouse experiment, pre-emergence treatment; format: in vivo, Apera spica-venti; settings: pre-emergence method, application rate 2000 g/ha, scale from 0 to 100
Description: (§7) The seeds of the test plants were sown separately for each species. For the pre-emergence treatment, the active ingredients, which had been suspended or emulsified in water, were applied directly after sowing by means of finely distributing nozzles. The containers were irrigated gently to promote germination and growth and subsequently covered with transparent plastic hoods until the plants had rooted. This cover caused uniform germination of the test plants, unless this had been impaired by the active ingredients. Depending on the species, the plants were kept at 10-25° C. or 20-35° C., respectively. The test period extended over 2 to 4 weeks. During this time, the plants were tended, and their response to the individual treatments was evaluated. Evaluation was carried out using a scale from 0 to 100. 100 means no emergence of the plants, or complete destruction of at least the aerial moieties, and 0 means no damage, or normal course of growth. A good herbicidal activity is given at values of at least 70 and a very good herbicidal activity is given at values of at least 85. The plants used in the greenhouse experiments were of the following species: [table]

ABUTH = assay: greenhouse experiment, post-emergence treatment; format: in vivo, Abutilon theophrasti; settings: post-emergence method, application rate 2000 g/ha, scale from 0 to 100
Description: as §1, §2, §3, §4, §5, §6

AVEFA = assay: greenhouse experiment, post-emergence treatment; format: in vivo, Avena fatua; settings: post-emergence method, application rate 2000 g/ha, scale from 0 to 100
Description: as §1, §2, §3, §4, §5, §6

ALOMY = assay: greenhouse experiment, post-emergence treatment; format: in vivo, Alopecurus myosuroides; settings: post-emergence method, application rate 2000 g/ha, scale from 0 to 100
Description: as §1, §2, §3, §4, §5, §6

ECHCG [2] = assay: greenhouse experiment, pre-emergence treatment; format: in vivo, Echinocloa crus-galli; settings: pre-emergence method, application rate 2000 g/ha, scale from 0 to 100
Description: as §7

| Compound | herbicidal activity against SETVI (SETVI) | herbicidal activity against ECHCG (ECHCG [1]) | herbicidal activity against AMARE (AMARE) | herbicidal activity against APESV (APESV) | herbicidal activity against ABUTH (ABUTH) | herbicidal activity against AVEFA (AVEFA) | herbicidal activity against ALOMY (ALOMY) | herbicidal activity against ECHCG (ECHCG [2]) |
| --- | --- | --- | --- | --- | --- | --- | --- | --- |
| COC(=O)c1nc(C2CC2)ncc1-c1ncccc1F [Example 19] | very good (a very good herbicidal activity is given at values of at least 85) | very good (a very good herbicidal activity is given at values of at least 85) | very good (a very good herbicidal activity is given at values of at least 85) | – | – | – | – | – |
| COC(=O)c1nc(C2CC2)ncc1-c1ncc(F)cc1F [Example 31] | very good (a very good herbicidal activity is given at values of at least 85) | – | – | very good (a very good herbicidal activity is given at values of at least 85) | good (A good herbicidal activity is given at values of at least 70) | – | – | – |
| COC(=O)c1nc(C2CC2)ncc1-c1ccncc1F [Example 33] | very good (a very good herbicidal activity is given at values of at least 85) | – | very good (a very good herbicidal activity is given at values of at least 85) | good (A good herbicidal activity is given at values of at least 70) | – | very good (a very good herbicidal activity is given at values of at least 85) | – | – |
| COC(=O)c1nc(C2CC2)ncc1-c1nc(C(F)(F)F)ccc1F [Example 61] | very good (a very good herbicidal activity is given at values of at least 85) | – | – | good (A good herbicidal activity is given at values of at least 70) | – | very good (a very good herbicidal activity is given at values of at least 85) | very good (a very good herbicidal activity is given at values of at least 85) | very good (a very good herbicidal activity is given at values of at least 85) |
| COC(=O)c1nc(C2CC2)ncc1-c1cc(C(F)(F)F)ncc1Cl [Example 63] | very good (a very good herbicidal activity is given at values of at least 85) | – | – | very good (a very good herbicidal activity is given at values of at least 85) | very good (a very good herbicidal activity is given at values of at least 85) | – | very good (a very good herbicidal activity is given at values of at least 85) | very good (a very good herbicidal activity is given at values of at least 85) |
